Tests used:
[1] = Clonogenic assay cytotoxicity in A375 cells without light; assay type: cell-based, human; settings: human
Procedure: FIGS. 28A-28B provide a summary of the evidence of the cytotoxicity of charged pi-conjugated compounds without light. Toxicity was measured using clonogenic assay with 7 hours of incubation (contact time between molecules and A375 cells) and 7 days for colony formation. (FIG. 28A) The lethal concentration of the cyanine molecules to kill 50% of the A375 cells (Tox LC50) without light activation. (FIG. 28B) Chemical structure of exemplary charged pi-conjugated compounds. On average, 300 cells equal to 300 colonies were seeded and analyzed for each data point.
Both properties were measured using clonogenic assay with 7 hours of incubation (contact time between molecules and A375 cells) and 7 days for colony formation. 300 cells were seeded and analyzed for each data point.
More cytotoxicity tests were conducted in some additional molecules and using clonogenic assay for cell viability (FIG. 28). A375 cells were exposed to charged pi-conjugated compounds for 7 hours, in contrast to the previously presented assays which were conducted with crystal violet assay and 2 days of exposure. The data points showing the cytotoxicity quantification for each individual molecule are presented in FIG. 29, with resulting IC50 values summarized in Table 4.

[2] = Crystal violet cytotoxicity test in A375 cells without light activation; assay type: cell-based, human; settings: human
Procedure: The inhibitory concentration of charged pi-conjugated compounds needed to inhibit the cell growth by 50% (toxicity IC50).
Most of the charged pi-conjugated compounds are aminocyanines which are functionalized with alkyl amine group. The charged pi-conjugated compounds were added to cell cultures of A375 cancer cells (human melanoma) and their cytotoxicity was quantified by the crystal violet test and/or clonogenic assays for cell viability. […] The longer the exposure the most cytotoxic the charged pi-conjugated compounds are towards A375 cells. […] The same behavior is observed: the longer the exposure, the more cytotoxic. All molecules presented here are aminocyanines except GL-261-2 which is a carboxyl-cyanine. […] This was the first time a therapeutic window of concentration that can be tuned to selectively kill cancer and/or protect cells was suspected. In finding this therapeutic window concentration and time of exposure are important variables that should be fine tuned.
Based on the finding described above, a larger set of charged pi-conjugated compounds was evaluated for cytotoxicity against A375 cancer cells as shown in FIG. 25 and FIG. 26.
The IC50 is the concentration needed to inhibit the cell viability by 50%. These molecules in FIG. 25 and FIG. 26 were evaluated by crystal violet assay and using 2 days of exposure.

[3] = test system: A375 melanoma; test: Toxicity on A375 melanoma versus normal melanocytes (A375 arm); assay type: cell-based, human; settings: 1 μM concentration
Procedure: (§1) FIG. 32 provides evidence of toxicity of charged pi-conjugated compounds on HEMa (normal melanocytes) versus on A375 melanoma using 1 day of incubation versus 2 days of incubation. BL-204, BL-141-2, BL-304 are aminocyanines. In contrast, TS-1-32 and GL-261-2 are two names for a carboxycyanine compound shown as GL-261-2 in FIG. 23.
This characterization is accurate for long exposures (~24 h) and in 200,000 cells/mL. The limits of toxic concentration (referenced herein as a therapeutic window) can vary with the exposure time and total cell number present in the test. For example, 1 μM concentration of charged pi-conjugated compounds are safe when used at 30 min exposure in the cell culture at 200,000 cells/mL. However, about higher than 2 μM cyanine becomes toxic (~8 μM) even at short exposure time (~30 min) for 200,000 cells/mL. In contrast, for a solid tumor this lethal concentration is expected to be higher since hundreds of millions of cells are contained in a small solid tumor. The dose may be calibrated and normalized by the total number of cells. The correct therapeutic window to kill cancer cells should be expressed in μg of charged pi-conjugated compound per 1 million of cells or ug of charged pi-conjugated compound per gram of cells. […]

[4] = test system: HEMa (normal melanocytes); test: Toxicity on A375 melanoma versus normal melanocytes (HEMa arm); assay type: cell-based; settings: for safety for normal skin melanocyte cells (HEMa): 1 μM concentration
Procedure: as §1
This characterization is accurate for long exposures (~24 h) and in 200,000 cells/mL. The limits of toxic concentration (referenced herein as a therapeutic window) can vary with the exposure time and total cell number present in the test. For example, 1 μM concentration of charged pi-conjugated compounds are safe when used at 30 min exposure in the cell culture at 200,000 cells/mL. However, about higher than 2 μM cyanine becomes toxic (~8 μM) even at short exposure time (~30 min) for 200,000 cells/mL. In contrast, for a solid tumor this lethal concentration is expected to be higher since hundreds of millions of cells are contained in a small solid tumor. The dose may be calibrated and normalized by the total number of cells. The correct therapeutic window to kill cancer cells should be expressed in μg of charged pi-conjugated compound per 1 million of cells or ug of charged pi-conjugated compound per gram of cells. […] Therefore, the presently disclosed charged pi-conjugated compounds may be useful in a clinical application in patients where the charged pi-conjugated compounds could protect the normal tissue and selectively cause toxicity to cancer cells.

[5] = test system: HEK293 (epithelial-like kidney cells); test: Presto Blue viability assay, HEK293; assay type: cell-based, human; settings: Homo sapiens, HEK293, 8 h, read-out: IC50 (concentration needed to inhibit cell viability by 50%)
Procedure: (§2) The biocompatibility of charged pi-conjugated compounds with mammalian cell lines was evaluated by studying the effects of different charged pi-conjugated compound concentrations on the viability of two mammalian cell lines: A549 (epithelial-like lung cells) and HEK293 (epithelial-like kidney cells). […] Dose-response curves were used to determine IC50 values, that is, the concentration of charged pi-conjugated compound needed to inhibit cell viability by 50%. […] The MIC of MRSA USA300 was used to calculate the therapeutic index. MRSA USA300 is a major contributor to community-associated MRSA infections, including skin and soft tissue infections, bacteraemia, endocarditis, bone and joint infections and nosocomial infections. […]
(§3) The biocompatibility of charged pi-conjugated compounds with mammalian cell lines was assessed by determining their impact on the mitochondrial activity of human alveolar basal epithelial adenocarcinoma cells (A549) and human embryonic kidney cells (HEK293T) cells, using the Presto Blue assay according to the manufacturer's protocol. […] After 8 h, Presto Blue cell viability reagent (Thermo Fisher Scientific, Waltham, MA, USA) was added to the cells, and after 2 h of incubation, fluorescence was measured using a microplate reader (BioTek Instruments Inc., Winooski, VT, USA). […] The therapeutic index was calculated from the ratio between IC50 and the MIC.

[6] = test system: Gram-positive strains; test: MIC / MIC50 by broth microdilution in panel of Gram-positive strains; assay type: cell-based; settings: MIC50 over all Gram-positive strains tested (Table 2)
Procedure: Antibacterial activity was assessed by determining the minimal inhibitory concentration (MIC) and the minimal bactericidal concentrations (MBC) and by monitoring time-dependent bacterial killing of exponentially growing cells. Bacterial cell suspensions (OD600≈0.02 in cation-adjusted Muller-Hinton Broth) were treated with increasing concentrations of the different molecules. The minimal inhibitory concentration (MIC) was defined as the minimal concentration of the molecule resulting in complete bacterial growth arrest. The minimal bactericidal concentration (MBC) was defined as the lowest concentration of the molecule that killed 99.9% of the inoculum. A molecule was determined to be bactericidal if the ratio of the MBC to the MIC was less than 4 to 6. […] In M. smegmatis, the antibacterial activity of charged pi-conjugated compounds was generally lower.
The MIC values for all Gram-positive strains tested (Table 2) were used to calculate the MIC50, i.e., the minimum inhibitory concentration needed to inhibit the growth of 50% of the tested isolates (FIG. 5A). […] When the average MIC50 values were evaluated, the most susceptible bacterial genera were Streptococcus sp., followed by Staphylococcus sp. In contrast, Propionibacterium sp. had the highest average MIC50 (FIG. 5B).
The broth microdilution method was used to determine the MIC of charged pi-conjugated compounds according to the CLSI guidelines. Charged pi-conjugated compound stock solutions (16 mM) were prepared in dimethyl sulfoxide (DMSO). Serial twofold dilutions of the charged pi-conjugated compounds were freshly prepared using the appropriate liquid media (Table 2), and 100 μL of each dilution was added to the appropriate wells of 96-well microtiter plates. The bacterial inoculum was further diluted in liquid media, and 100 μL was added to each well, resulting in a final cell density of ≈5×10^5 CFU mL^−1. […] A molecule was determined to be bactericidal if the ratio of the MBC to the MIC was less than 4 to 6. […]

[7] = test system: MRSA USA300; test: In vivo anti-infective activity in G. mellonella infected with MRSA; parameters: species or system Galleria mellonella; settings: 10-80 μM; vehicle-treated infected worms one day
Procedure: The in vivo anti-infective capacity of charged pi-conjugated compounds was evaluated in the invertebrate model G. mellonella infected with MRSA USA300. The survival curves shown in FIG. 21 illustrate the efficacy of two charged pi-conjugated compounds, BL 248 and BL 273, against MRSA USA300 infection in G. mellonella. With increasing concentrations of both molecules, there was a discernible improvement in survival compared with the vehicle-treated control group.
To evaluate the in vivo anti-infective activity of charged pi-conjugated compounds, MRSA USA300 was cultured overnight in tryptic soy broth and diluted to ~2×10^7 CFU mL^−1 in sterile phosphate-buffered saline based on OD600. Cohorts of five G. mellonella larvae (~300 mg each) were injected with 10 μL of the diluted bacterial suspension (2×10^5 […]) via the last left proleg, following larvae sterilization with 70% ethanol. One hour post-infection, the larvae were injected with increasing concentrations of charged pi-conjugated compounds or 1% DMSO (in PBS) as a negative control. Uninfected larvae were also used as controls. Larvae were incubated at 37° C., and survival was monitored afterward. Death was defined by complete melanization of the larval body and lack of movement in response to touch.

[8] = test system: S. aureus ATCC 25923; test: Mutation frequency (rifampin-resistant colonies) on repeated treatment; assay type: cell-based, Staphylococcus aureus; settings: frequency of rifampin-resistant colonies
Procedure: In addition, the mutation frequency (assessed as the frequency of rifampin-resistant colonies) of S. aureus ATCC 25923 subjected to repeated treatment with charged pi-conjugated compound or the conventional antibiotic ciprofloxacin was determined.
Mutation frequency was determined using rifampin resistance as a marker. The stored cells were revived overnight in LB broth and then plated on LB agar with and without rifampin (100 mg mL^−1) (Schaaff et al., 2002). The mutation frequency was calculated as the ratio of rifampin-resistant colonies to the total number of colonies.

[9] = test system: A549 (epithelial-like lung cells); test: Presto Blue viability assay, A549; assay type: cell-based; settings: Homo sapiens, 8 h treatment, read-out: IC50 (concentration needed to inhibit cell viability by 50%)
Procedure: as §2, §3

[10] = test system: MRSA USA300; test: Therapeutic index calculation (IC50 of mammalian cell lines / MIC); settings: ratio of average IC50 for A549 and HEK293 to MIC in MRSA USA300
Procedure: as §2, §3

SMILES | IC50 at 7 h [1] | IC50 at 2 days [2] | selectivity for killing cancer cells (A375) [3] | cell viability of normal skin melanocyte cells [4] | safety for normal skin melanocyte cells (HEMa) [4] | further results
CN(C)CCCCCC[N+]1=C(/C=C/C2=CC(=C/C=C3/N(C)c4ccc5ccccc5c4C3(C)C)/CCC2)C(C)(C)c2c1ccc1ccccc21.[I-] [BL-141-2, 3-(6-(dimethylamino)hexyl)-1,1-dimethyl-2-((E)-2-((E)-3-((E)-2-(1,1,3-trimethyl-1,3-dihydro-2H-benzo[e]indol-2-ylidene)ethylidene)cyclohex-1-en-1-yl)vinyl)-1H-benzo[e]indol-3-ium] | 400 nM | 750 nM | selective to specifically kill cancer cells | increased the cell viability | safe for normal skin melanocyte cells | 
CN(C)C(=O)CN1/C(=C/C=C2C=C(/C=C/C3=[N+](CC(=O)N(C)C)c4ccc5ccccc5c4C3(C)C)CCC/2)C(C)(C)c2c1ccc1ccccc21.[Br-] [BL 273, 3-(2-(dimethylamino)-2-oxoethyl)-2-((E)-2-((E)-3-((E)-2-(3-(2-(dimethylamino)-2-oxoethyl)-1,1-dimethyl-1,3-dihydro-2H-benzo[e]indol-2-ylidene)ethylidene)cyclohex-1-en-1-yl)vinyl)-1,1-dimethyl-1H-benzo[e]indol-3-ium] |  |  |  |  |  | IC50 [5]: 13700 nM; antibacterial activity according to MIC50 [6]: strongest antibacterial activity; survival of infected worms [7]: three or more days
CN(C)CC[N+]1=C(/C=C/C2=CC(=C/C=C3/N(C)c4ccc5ccccc5c4C3(C)C)/CCC2)C(C)(C)c2c1ccc1ccccc21.[I-] [BL-204, 3-(2-(dimethylamino)ethyl)-1,1-dimethyl-2-((E)-2-((E)-3-((E)-2-(1,1,3-trimethyl-1,3-dihydro-2/I-benzo[e]indol-2-ylidene)ethylidene)cyclohex-1-en-1-yl)vinyl)-1H-benzo[e]indol-3-ium] | 220 nM | 600 nM | selective to specifically kill cancer cells | increased the cell viability | safe for normal skin melanocyte cells | 
O=C(O)c1cn(C2CC2)c2cc(N3CCNCC3)c(F)cc2c1=O [ciprofloxacin] |  |  |  |  |  | mutation rate across treatment cycles [8]: marked increase across treatment cycles
CN(C)C(=O)CN1c2ccc3ccccc3c2C(C)(C)C1/C=C/C1=CC(=C/C=C2/N(C)c3ccc4ccccc4c3C2(C)C)/CCC1.I (stereo not shown) [BL 248] |  |  |  |  |  | IC50 [9]: 14700 nM; therapeutic index [10]: 9.3

Source: patent publication US20260216134A1, “CHARGED PI-CONJUGATED MOLECULES FOR THE TREATMENT OF MICROBIAL INFECTIONS” (priority 2023, published 2026)
